{"source": "patent US20240247021A1", "about": "“CRYSTAL FORMS OF KUDING SAPONIN A COMPOUND, PHARMACEUTICAL COMPOSITION AND USE THEREOF” (SHANGHAI KE PHARMACEUTICAL CO., LTD, priority 2021, published 2024)", "key": {"[1]": {"type": "physicochemical", "conditions": "uncovered, in the dark, 10 days; long-term (25±2° C., RH 65%±10%) and accelerated (40±2° C., RH 75%±10%) conditions", "experimental": "25 mg of the crystal form J was spread in a culture dish and left to stand, with the culture dish uncovered, in the dark for 10 days under long-term conditions (temperature: 25±2° C.; relative humidity: 65%±10%) and acceleration conditions (temperature: 40±2° C.; relative humidity: 75%±10%), and then the crystal form J was subjected to X-ray powder diffraction assay and thermogravimetric analysis. The X-ray powder diffractometer used and parameters thereof are shown in Table 4; the thermogravimetric analyzer used and parameters thereof are shown in Table 6."}, "[2]": {"assay": "Hygroscopicity test by dynamic vapor sorption (DVS)", "type": "physicochemical", "conditions": "for weight change when the relative humidity is in the range of 0%-80% / hygroscopicity: DVS graph (FIGS. 1d, 2d, 3d); for hygroscopicity: judgment criteria of Table 7; for Increase in mass (relative humidity: 0%-80%) / Degree of hygroscopicity: DVS, 25° C., relative humidity 0%-80%; for Degree of hygroscopicity: criteria of Table 12", "experimental": "Dynamic vapor sorption (DVS) is a test method for analyzing the moisture sorption performance of a sample and recording the moisture sorption isotherm, and it determines the stability of a compound by identifying its sorption capacity for moisture. Methods for performing dynamic vapor sorption analysis on the crystals are well known to those skilled in the art. In the present invention, the hygroscopicity of the crystal forms A, C, and J of Kudinoside A is determined by using a dynamic vapor sorption instrument, and the specific measurement conditions are shown in Table 7.\nAbout 10 mg of each of the crystal forms A, C, and J obtained in Examples 1-3 was tested for its hygroscopicity using a dynamic vapor sorption (DVS) instrument (test conditions: a temperature of 25° C. and a relative humidity of 0%-80%), and the hygroscopicity of each crystal form was judged using the criteria shown in Table 12 below. For the steps and the judgment criteria of the hygroscopicity test, reference is made to the General Requirement 9103-Guidelines for Hygroscopicity in Pharmacopoeia of the People's Republic of China 2020 (Volume IV)."}, "[3]": {"assay": "Thermogravimetric analysis (TGA)", "type": "physicochemical", "conditions": "10 K/min, nitrogen", "excerpt": "Thermogravimetric analysis, or TGA for short, refers to a thermal analysis method for measuring the relationship of the mass of a sample to be detected with the change of temperature or time at a programmed temperature, and it is used to study information related to the quality of the sample, such as thermal stability, components of intermediate products possibly generated, etc. It is often used in combination with other thermal analysis methods for comprehensive thermal analysis. Methods for performing thermogravimetric analysis on the crystals are well known to those skilled in the art. In the present invention, the crystal forms A, C, and J of Kudinoside A are determined by using a thermogravimetric analyzer, and the specific measurement conditions are shown in Table 6."}, "[4]": {"assay": "Conditions under which the crystal forms exist stably", "type": "physicochemical"}, "bronchial smooth muscle": {"tested_on": "bronchial smooth muscle", "assay": "Relaxation effect on bronchial smooth muscle (bronchial ring tension)", "parameters": "species or system C57BL/6J mice", "conditions": "for Average percentage of tension relaxation: bronchial rings pre-constricted, 20 minutes after adding", "experimental": "Firstly, Kudinoside A solutions with different concentrations were prepared: 0.3253 g of the crystal form A of the Kudinoside A obtained in Example 1 was dissolved in 1 mL of dimethyl sulfoxide (DMSO) to prepare a stock solution of the crystal form A of Kudinoside A, and then the stock solution was diluted in sequence with DMSO into solutions of the crystal form A of Kudinoside A at concentrations of 1 μM, 3.2 μM, 10 μM, and 32 μM.\nThen, bronchial rings were prepared: C57BL/6J mice aged 6 weeks were killed by breaking the neck, left and right bronchi were taken out and subjected to bronchia dissection under a stereomicroscope, and the obtained left and right bronchi were cut into bronchial rings with a length of about 2 mm.\nFurthermore, the tension of the bronchial ring was balanced: the bronchial ring was fixed with two metal wires and suspended in a water bath at 37° C. containing 5 mL of balanced salt solution (Kreb solution), and a mixed gas containing 5% of carbon dioxide and 95% of oxygen was continuously introduced; then the tension of the bronchial ring was balanced using a tension transducer and re-balanced after pre-stimulation with 60 mM potassium chloride.\nFinally, determination of the airway tension and drug administration were performed: the instrument was calibrated, and the detection system was zeroed; a tension value A was recorded when the tension of the mouse was stable; 5 μL of 10 mM […] was added to 5 mL of Kreb solution to make the final concentration to be 10 μM, and 5 μL of each of the solutions of the crystal form A of Kudinoside A at different concentrations (1 μM, 3.2 μM, 10 μM, and 32 μM) was added separately when the constriction tension of the bronchial ring reached the peak; the change of the bronchial tension was observed and recorded, and the percentage of the airway tension relaxation was calculated, as shown in Table 22. The average tension value 1 minute before adding the solution of Kudinoside A is recorded as B, the average tension value 20 minutes after adding Kudinoside A is recorded as C, and the percentage of airway tension relaxation is (B−C)/(B−A)."}, "[5]": {"tested_on": "asthma mouse models with obvious pulmonary inflammation", "assay": "Anti-inflammatory effect in asthma mouse models (eosinophilic granulocytes in alveolar lavage fluid, flow cytometry)", "type": "in vivo, Balb/c mice", "conditions": "for Proportion of eosinophilic granulocytes (EOs): white blood cells of alveolar lavage fluid, day 39, negative control group 17.05", "experimental": "Firstly, Kudinoside A solutions at different concentrations were prepared, and specific steps were as follows: • (1) Preparation of 15 mg/mL stock solution of the crystal form A of Kudinoside A: 0.50990 g of the crystal form A of Kudinoside A obtained in Example 1 was dissolved in 33.993 mL of propylene glycol under sonication to obtain about […] of 15 mg/mL stock solution of the crystal form A of Kudinoside A, which was stored at room temperature in the dark; • (2) Preparation of 1.5 mg/mL Kudinoside A solution: 2 mL of the 15 mg/mL stock solution of the crystal form A of Kudinoside A was measured out and diluted with 18 mL of 25% propylene glycol to obtain 20 mL of 1.5 mg/mL Kudinoside A solution, and the solution was freshly prepared before use. • (3) Preparation of 0.3 mg/mL Kudinoside A solution: 4 mL of the 1.5 mg/mL Kudinoside A solution was measured out and diluted with 16 mL of 32.5% propylene glycol to obtain 20 mL of 0.3 mg/mL Kudinoside A solution, and the solution was freshly prepared before use. • (4) Preparation of 0.06 mg/mL Kudinoside A solution: 3 mL of the 0.3 mg/mL Kudinoside A solution was measured out and diluted with 12 mL of 32.5% propylene glycol to obtain 15 mL of […] Kudinoside A solution, and the solution was freshly prepared before use.\nThen, asthma mouse models with obvious pulmonary inflammation were constructed: 100 μL of 6 mg/mL chicken ovalbumin and 4 mg of aluminum hydroxide were injected intraperitoneally to Balb/c mice on day 1, 100 μL of 3.6 mg/mL chicken ovalbumin and 4 mg of aluminum hydroxide were injected on day 8, 100 μL of 1 mg/mL chicken ovalbumin and 4 mg of aluminum hydroxide were injected on day 15, and 6 mL of 2% chicken ovalbumin was administered by nebulization for exciting of 30 min every day from day 20 to day 23, thus constructing asthma mouse models with obvious pulmonary inflammation. For the mice in the blank control group, 100 μL of PBS was used instead of chicken ovalbumin.\nFinally, the nebulization treatment was performed: from day 24, the Kudinoside A solutions at different concentrations (0.06 mg/mL, 0.3 mg/mL, and 1.5 mg/mL) were each administered by nebulization twice daily (30 min for each time, 12 mL in total) for treatment, and 6 mL of 2% chicken ovalbumin was administered by nebulization for exciting of 30 min 1 h after the nebulization treatment, and the administration and excitation were performed for 15 days according to this scheme; sampling was carried out 24 h after the last administration and excitation experiment, i.e., on day 39, and the Kudinoside A solution at the corresponding nebulization treatment concentration was administered twice (30 min for each time, 12 mL in total) for treatment before the sampling. The above was the scheme for the experimental groups of the nebulization treatment with Kudinoside A at different doses, and the mice in the negative control group were administered with 30% propylene glycol instead of Kudinoside A for nebulization.\nFlow cytometry was adopted to detect proportion of eosinophilic granulocytes (EOs) in white blood cells of mouse alveolar lavage fluid samples. The blank group had 15 mice, the negative control group had 12 mice, and the high-, medium-, and low-concentration Kudinoside A experimental groups had 18 mice, 13 mice, and 14 mice, respectively."}}}
{"compound": "C[C@@H]1O[C@@H](O[C@H]2[C@H](O[C@H]3CC[C@]4(C)[C@H]5C[C@H](O)C6=C7[C@]8(CC[C@](C)(OC8=O)[C@@]7(C)O)CC[C@@]6(C)[C@]5(C)CC[C@H]4C3(C)C)OC[C@H](O)[C@@H]2O[C@@H]2O[C@H](CO)[C@@H](O)[C@H](O)[C@H]2O)[C@H](O)[C@H](O)[C@H]1O", "note": "[crystal form J, Kudinoside A]", "values": [{"measurement": "characteristic peaks on the X-ray powder diffraction pattern (crystal form change)", "setting": "[1]", "result": "not changed"}, {"measurement": "weight loss condition (TGA)", "setting": "[1]", "result": "not changed"}, {"measurement": "weight change when the relative humidity is in the range of 0%-80%", "setting": "[2]", "result": "about 4.7%"}, {"measurement": "hygroscopicity", "setting": "[2]", "result": "hygroscopic"}, {"measurement": "Increase in mass (relative humidity: 0%-80%)", "setting": "[2]", "result": 4.7, "unit": "%"}, {"measurement": "Degree of hygroscopicity", "setting": "[2]", "result": "hygroscopic"}, {"measurement": "Degree of hygroscopicity", "setting": "[2]; listed as J", "result": "Hygroscopic (The increase in mass is less than 15% but not less than 2%)"}, {"measurement": "decomposition temperature", "setting": "[3]", "result": "about 324 °C"}, {"measurement": "conditions under which the crystal form exists stably", "setting": "[4]", "result": "can exist stably as a dry powder at room temperature"}]}
{"compound": "3β-12α-19α-trihydroxy-ursane-13(18)-ene-28,20β-lactone-3-O-[β-D-glucosyl-(1→3)-[α-L-rham nosyl-(1→2)]-α-L-arabinoside [Kudinoside A]", "values": [{"measurement": "relaxation effect on bronchial smooth muscle", "setting": "bronchial smooth muscle; 1 μM", "result": "no relaxation effect"}, {"measurement": "relaxation effect on bronchial smooth muscle", "setting": "bronchial smooth muscle; 3.2 μM, 10 μM, and 32 μM", "result": "relaxed to a certain degree"}, {"measurement": "Average percentage of tension relaxation", "setting": "bronchial smooth muscle; Concentration of Kudinoside A 1 μM", "result": "−3.57", "unit": "%"}, {"measurement": "Average percentage of tension relaxation", "setting": "bronchial smooth muscle; Concentration of Kudinoside A 3.2 μM", "result": 21.40, "unit": "%"}, {"measurement": "Average percentage of tension relaxation", "setting": "bronchial smooth muscle; Concentration of Kudinoside A 10 μM", "result": 42.93, "unit": "%"}, {"measurement": "Average percentage of tension relaxation", "setting": "bronchial smooth muscle; Concentration of Kudinoside A 32 μM", "result": 50.09, "unit": "%"}, {"measurement": "Proportion of eosinophilic granulocytes (EOs)", "setting": "[5]; 0.06 mg/mL solution by nebulization twice daily", "result": 10.14}, {"measurement": "Proportion of eosinophilic granulocytes (EOs)", "setting": "[5]; 0.3 mg/mL solution by nebulization twice daily", "result": 9.56}, {"measurement": "Proportion of eosinophilic granulocytes (EOs)", "setting": "[5]; 1.5 mg/mL solution by nebulization twice daily", "result": 10.81}, {"measurement": "anti-inflammatory effect (conclusion)", "setting": "[5]; asthma mouse models", "result": "certain anti-inflammatory effects"}, {"measurement": "proportion of eosinophilic granulocytes compared with the negative control group", "setting": "[5]; each dose (0.06, 0.3, 1.5 mg/mL)", "result": "decreases"}]}
{"compound": "C[C@@H]1O[C@@H](O[C@H]2[C@H](O[C@H]3CC[C@]4(C)[C@H]5C[C@H](O)C6=C7[C@]8(CC[C@](C)(OC8=O)[C@@]7(C)O)CC[C@@]6(C)[C@]5(C)CC[C@H]4C3(C)C)OC[C@H](O)[C@@H]2O[C@@H]2O[C@H](CO)[C@@H](O)[C@H](O)[C@H]2O)[C@H](O)[C@H](O)[C@H]1O", "note": "[crystal form C, Kudinoside A]", "values": [{"measurement": "weight change when the relative humidity is in the range of 0%-80%", "setting": "[2]", "result": "about 1.8%"}, {"measurement": "hygroscopicity", "setting": "[2]", "result": "slightly hygroscopic"}, {"measurement": "Increase in mass (relative humidity: 0%-80%)", "setting": "[2]", "result": 1.8, "unit": "%"}, {"measurement": "Degree of hygroscopicity", "setting": "[2]", "result": "slightly hygroscopicity"}, {"measurement": "Degree of hygroscopicity", "setting": "[2]; listed as C", "result": "Slightly hygroscopic (The increase in mass is less than 2% but not less than 0.2%)"}, {"measurement": "decomposition temperature", "setting": "[3]", "result": "about 315 °C"}, {"measurement": "conditions under which the crystal form exists stably", "setting": "[4]", "result": "can exist stably as a dry powder at room temperature"}]}
